Source: patent publication US8088806B2 (Achillion Pharmaceuticals, Inc., priority 2005, dated 2012)

System: HCV replicon
Assay: Replicon based assay of HCV replication inhibition (NPT ELISA)
Assay type: cell-based, Hepatitis C virus
Conditions: Hepatitis C virus, replicon based assay of HCV replication inhibition; Table II; read-out: Activity
Outline: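 Huh-7 cells carrying a bicistronic HCV replicon (neo, EMCV-IRES-driven NS3–NS5B) treated overnight after seeding with usually 6 concentrations, 10 to 0.03 micromolar, for three days at 37° C without G418. Replication read as NPT level by captured ELISA; matched-DMSO wells and interferon alpha as controls.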

| SMILES | EC50 [nM] |
| --- | --- |
| CCCCCOc1ccc(Nc2nc(-c3ccccn3)cs2)cc1F [compound 418, N-(3-fluoro-4-(pentyloxy)phenyl)-4-(pyridin-2-yl)thiazol-2-amine] | < 1000 |
| CCCCCOc1ccc(Nc2nc(-c3cc4ccccc4o3)cs2)cc1F [compound 419, 4-(benzofuran-2-yl)-N-(3-fluoro-4-(pentyloxy)phenyl)thiazol-2-amine] | 1000 to 10000 |
| CCCCCCCOc1ccc(Nc2nc(-c3ccc(F)cc3)cs2)cc1 [compound 420, 4-(4-fluorophenyl)-N-(4-(heptyloxy)phenyl)thiazol-2-amine] | < 1000 |
| CCCCCCCOc1ccc(Nc2nc(-c3ccc(Cl)c(Cl)c3)cs2)cc1 [compound 421, 4-(3,4-dichlorophenyl)-N-(4-(heptyloxy)phenyl)thiazol-2-amine] | < 1000 |
| CCCCCCCOc1ccc(Nc2nc(-c3ccc(Cl)cc3)cs2)cc1 [compound 422, 4-(4-chlorophenyl)-N-(4-(heptyloxy)phenyl)thiazol-2-amine] | < 1000 |
| CCCCCCCOc1ccc(Nc2nc(-c3ccc(F)cc3F)cs2)cc1 [compound 423, 4-(2,4-difluorophenyl)-N-(4-(heptyloxy)phenyl)thiazol-2-amine] | < 1000 |
| CCCCCCCOc1ccc(Nc2nc(-c3ccc(OC)cc3)cs2)cc1 [compound 424, N-(4-(heptyloxy)phenyl)-4-(4-methoxyphenyl)thiazol-2-amine] | < 1000 |
| CCCCCCCOc1ccc(Nc2nc(-c3ccc(OCC(=O)O)cc3)c(C)s2)cc1 [compound 425, 2-(4-(2-(4-(heptyloxy)phenylamino)-5-methylthiazol-4-yl)phenoxy)acetic acid] | < 1000 |
| CCCCCOc1ccc(Nc2nc(-c3ccc(C(=O)O)cc3)cs2)cc1F [compound 426, 4-(2-(3-fluoro-4-(pentyloxy)phenylamino)thia-zol-4-yl)benzoic acid] | 1000 to 10000 |
| CCCCCOc1ccc(Nc2nc(CC)cs2)cc1F [compound 427, 4-ethyl-N-(3-fluoro-4-(pentyloxy)phenyl)thiazol-2-amine] | 1000 to 10000 |
| COc1ccc(Cl)cc1Nc1nc(-c2cccnc2)cs1 [compound 428, N-(5-chloro-2-methoxyphenyl)-4-(pyridin-3-yl)thiazol-2-amine] | 1000 to 10000 |
| CC(=O)Nc1ccc(Nc2nc(-c3cccs3)cs2)cc1 [compound 429, N-(4-(4-(thiophen-2-yl)thiazol-2-ylamino)phenyl)acetamide] | > 10000 |
| CCCCCOc1c(F)cc(Nc2nc(-c3cccnc3)cs2)cc1F [compound 430, N-(3,5-difluoro-4-(pentyloxy)phenyl)-4-(pyridin-3-yl)thiazol-2-amine] | < 1000 |
| CCCCCOc1ccc(Nc2nc(-c3cc(OC)ccc3OC)cs2)cc1C(F)(F)F [compound 431, N-(3-(trifluoromethyl)-4-(pentyloxy)phenyl)-4-(2,5-dimethoxyphenyl)thiazol-2-amine] | 1000 to 10000 |
| CCCCCCCOc1ccc(Nc2nc(-c3cc(OC)ccc3OC)cs2)cc1 [compound 432, N-(4-(heptyloxy)phenyl)-4-(2,5-dimethoxyphenyl)thiazol-2-amine] | < 1000 |
| CCCCCOc1ccc(Nc2nc(-c3cc(OC)ccc3OC)cs2)cc1F [compound 433, N-(3-fluoro-4-(pentyloxy)phenyl)-4-(2,5-dimethoxyphenyl)thiazol-2-amine] | < 1000 |
| CCCCCOc1ccc(Nc2nc(-c3cccc(O)c3)cs2)cc1C(F)(F)F [compound 434, 3-(2-(3-(trifluoromethyl)-4-(pentyloxy)phenylmino)thia-zol-4-yl)phenol] | 1000 to 10000 |
| CCCCCCCOc1ccc(Nc2nc(-c3cccc(O)c3)cs2)cc1 [compound 435, 3-(2-(4-(heptyloxy)phenylamino)thia-zol-4-yl)phenol] | < 1000 |
| CCCCCCCCOc1ccc(Nc2nc(-c3cccc(O)c3)cs2)cc1 [compound 436, 3-(2-(4-(octyloxy)phenylamino)thia-zol-4-yl)phenol] | < 1000 |
